Assay results taken from patent US7026458B2, “High light fastness reactive red dyes” (DyStar Textilfarben GbmH & Co. Deutschland KG, priority 2003, dated 2006).

Test: Solubility in 90 g/L salt solution at 50° C.
Format: physicochemical
Protocol: 9% w/v solutions of Dyestuff (Ia) and of Dyestuff (5) were prepared at 50° C. and salt added to produce a 90 g/L salt solution. After 30 mins, 4.2% of Dyestuff (Ia) remained in solution whilst only 2.8% of Dyestuff (5) remained in solution. Thus Dyestuff (Ia) is 50% more soluble in 90 g/L salt at 50° C. than Dyestuff (5). This factor can be crucial as dyeings are carried out at high salt concentrations and better salt solubility can avoid problems with unlevel exhaustion onto the fibre from an exhaust dyebath.

dyestuff remained in solution (9% w/v solution prepared at 50° C., salt added to give 90 g/L salt solution, after 30 mins): 4.2% | more soluble than Dyestuff (5) (in 90 g/L salt at 50° C., relative to Dyestuff (5)): 50%
SMILES: Cc1ccc(Nc2nc(Cl)nc(Nc3ccc(/N=N/c4c(N)c(S(=O)(=O)O)cc5cc(S(=O)(=O)O)cc(O)c45)c(S(=O)(=O)O)c3)n2)c(Nc2nc(Cl)nc(Nc3ccc(/N=N/c4c(N)c(S(=O)(=O)O)cc5cc(S(=O)(=O)O)cc(O)c45)c(S(=O)(=O)O)c3)n2)c1 [Dyestuff (Ia)]
